According to patent US4250329A, “Carbonylation process” (priority 1979, dated 1981):
Values joined by “and” are separate entries in the source; they are usually repeats but may differ in a detail not shown here. Equal values may be shown once. Read-outs that look alike come from different tables or passages of the source.

Tests used:
[1] = Carbonylation of methanol to methyl acetate; set-up: methyl acetate (drawing 15) produced: unit not given here; conditions: for % Conversion (Table II) / % Selectivity (Table II; additional product was dimethyl ether): 1000 psi; for methyl acetate (drawing 17): the values are: methyl acetate volume produced; for methyl acetate (drawing 15) produced / CH3 OH consumed: 20 hour
Description: (THF)4 Mg[Co(CO)3 P(C4 H9)3 ]2 +CH3 I catalyst system
Reaction conditions: 175° C., 1000 psi

[2] = Description: This conversion is run at elevated pressures, preferably from 1,500 to 3,000 psi. Reaction temperatures will range from 50° C. to 200° C., with a range of 100° C. to 150° C. preferred. Ratio of H2 to CO used will vary with reaction conditions; preferably a 1 to 1 ratio is maintained. The catalyst concentration will range from 0.01 to 20% based on the weight feed, with 0.05 to 10% preferred.
30 ml. of hexene-1, 20 ml. of benzene, and 0.3 gm. […] The bomb was heated to 140° C. and held until the reaction was complete.

[3] = Hydroformylation of propylene; conditions: 133 °C
Text: [table 17: the next 25 blocks are its lines as printed, fixed-width]

[4] = Carbonylation of methanol to methyl acetate; conditions: 175° C.
[5] = catalyst 2.0 mmole, CH3I 8.0 mmole, 67 hour, 175° C.
[6] = catalyst 1.0 mmole, CH3I 8.0 mmole, 21 hour, 175° C.
[7] = 1500 psi 1:1 H2:CO, 140° C., 0.3 gm catalyst
[8] = cocatalyst 8.0 mmole, 19 hr, 1.0 mmole catalyst, 175° C., 1000 psi CO
[9] = cocatalyst 8.0 mmole, 90 hr, 1.0 mmole catalyst, 175° C., 1000 psi CO
[10] = CH3I 1.6 mmole, 18 hr, 175° C., 1000 psi CO, no reaction occurs
[11] = CH3I 4.0 mmole, 18 hr, 175° C., 1000 psi CO
[12] = CH3I 6.0 mmole, 18 hr, 175° C., 1000 psi CO
[13] = CH3I 8.0 mmole, 3.25 hr, 175° C., 4000 psig CO
[14] = CH3I 8.0 mmole, 18 hr, 175° C., 1000 psi CO
[15] = CH3I 12.0 mmole, 18 hr, 175° C., 1000 psi CO
[16] = CH3I 16.0 mmole, 18 hr, 175° C., 1000 psi CO
[17] = CH3I 48.0 mmole, 17 hr, 175° C., 1000 psi CO
[18] = cocatalyst 8.0 mmole, 18 hr, 1.0 mmole catalyst, 175° C., 1000 psi CO

## CC(=O)[CH-]C(C)=O.CC(=O)[CH-]C(C)=O.CC(=O)[CH-]C(C)=O.[Co+3] [Co(C5 H7 O2)3]
[1]; [5]
  % Conversion (Table II): 16%
  % Selectivity (Table II; additional product was dimethyl ether): 23%

## [C-]#[O+].[C-]#[O+].[C-]#[O+].[C-]#[O+].[C-]#[O+].[C-]#[O+].[C-]#[O+].[C-]#[O+].[Co].[Co] [Co2 (CO)8]
[1]; [6]
  % Conversion (Table II): 3.5%
  % Selectivity (Table II; additional product was dimethyl ether): 6.4%

## CBr [CH3 Br]
[1]
  activity as cocatalyst: inactive

## tetrakis tetrahydrofuran adduct of a magnesium-dicobalt hexacarbonyl bismethyldiphenylphosphine complex [(C4 H8 O)4 Mg[Co(CO)3 PCH3 (C6 H5)2]2]
[2]; [7]
  hexene-1 converted to C7 aldehydes and C7 alcohols: 99%
  reacted product that was an aldehyde: 87%
[2]; elevated pressures
  conversion of 1-hexene to heptaldehydes: > 99%
  selectivity, 1-hexene to heptaldehydes: 87%

## CCI [CH3 CH2 I]
[1]; [8]
  % Conversion to Methyl Acetate (Table III): 20%
  % Selectivity to Methyl Acetate (Table III): 85%
[1]
  methyl acetate (drawing 17): 17.5 mL

## [C-]#[O+].[Cl-].[Rh].c1ccc(P(c2ccccc2)c2ccccc2)cc1.c1ccc(P(c2ccccc2)c2ccccc2)cc1 [((C6 H5)3 P)2 Rh(CO)Cl]
[3]; 1n 2/k
  t1/2: 9.32 min
[3]; 1000 psig CO/H2 50/50
  k (pseudo 1st order reaction rate constant): 0.0744 min⁻¹
[3]; 1000 psig CO/H2 50/50, benzene, 0.5 mmoles catalyst based on Rh
  n-C4 H8 O (percent straight chain isomer): 56%

## Ic1ccccc1 [C6 H5 I]
[1]; [9]
  % Conversion to Methyl Acetate (Table III): 25%
  % Selectivity to Methyl Acetate (Table III): 52%
[1]; cocatalyst 8.0 mmole, 1000 psi CO, 175° C., 90 hours
  methyl acetate (drawing 17): 22.3 mL

## CI [CH3 I, methyl iodide]
[1]; [10]
  % Conversion to Methyl Acetate (Table IV): 0.0%
  % Selectivity to Methyl Acetate (Table IV): 0.0%
[1]; CH3I 1.6 mmole, 1.0 mmole catalyst, 1000 psi CO, 175° C.
  methyl acetate (drawing 15) produced: 0.5
[1]; CH3I 1.6 mmole, 1000 psi CO, 175° C.
  CH3 OH consumed: 1.2 mL
[1]; [11]
  % Conversion to Methyl Acetate (Table IV): 22%
  % Selectivity to Methyl Acetate (Table IV): 100%
[1]; [12]
  % Conversion to Methyl Acetate (Table IV): 24%
  % Selectivity to Methyl Acetate (Table IV): 100%
[1]; [13]
  % Conversion to Methyl Acetate (Table IV): 29%
  % Selectivity to Methyl Acetate (Table IV): 97%
[1]; [14]
  % Conversion to Methyl Acetate (Table IV): 24%
  % Selectivity to Methyl Acetate (Table IV): 85%
[1]; CH3I 8.0 mmole, 1.0 mmole catalyst, 1000 psi CO, 175° C.
  methyl acetate (drawing 15) produced: 22.4
[1]; CH3I 8.0 mmole, 1000 psi CO, 175° C.
  CH3 OH consumed: 30.0 mL
[1]; [15]
  % Conversion to Methyl Acetate (Table IV): 5.4%
  % Selectivity to Methyl Acetate (Table IV): 15%
[1]; CH3I 16.0 mmole, 4.25 hr, 175° C., 4000 psig CO
  % Selectivity to Methyl Acetate (Table IV): 74%
[1]; [16]
  % Conversion to Methyl Acetate (Table IV): 4.5%
  % Selectivity to Methyl Acetate (Table IV): 12%
[1]; CH3I 16.0 mmole, 1.0 mmole catalyst, 1000 psi CO, 175° C.
  methyl acetate (drawing 15) produced: 4.5
[1]; CH3I 16.0 mmole, 1000 psi CO, 175° C., CH3OH is dehydrated to CH3OCH3
  CH3 OH consumed: 45.0 mL
[1]; [17]
  % Conversion to Methyl Acetate (Table IV): 0.0%
  % Selectivity to Methyl Acetate (Table IV): 0.0%
  conversion to CH3 OCH3: 100%
[1]; CH3I 48.0 mmole, 1.0 mmole catalyst, 1000 psi CO, 175° C.
  methyl acetate (drawing 15) produced: 1.2
[1]; CH3I 48.0 mmole, 1000 psi CO, 175° C., CH3OH is dehydrated to CH3OCH3
  CH3 OH consumed: 90. ml
[1]; cocatalyst 8.0 mmole, 3.25 hr, 1.0 mmole catalyst, 175° C., 4000 psi CO
  % Selectivity to Methyl Acetate (Table III): 97%
[1]; [18]
  % Conversion to Methyl Acetate (Table III): 24%
  % Selectivity to Methyl Acetate (Table III): 85%
[1]; cocatalyst 16.0 mmole, 4.25 hr, 1.0 mmole catalyst, 175° C., 4000 psi CO
  % Conversion to Methyl Acetate (Table III): 25%
[1]
  methyl acetate (drawing 17): 19.8 mL and 29.6 mL and 21.4 mL
[4]; CH3I 16.0 mmole, 4.25 hr, 4000 psig CO
  % Conversion to Methyl Acetate (Table IV): 25%
[4]; cocatalyst 8.0 mmole, 3.25 hr, 1.0 mmole catalyst, 4000 psi CO
  % Conversion to Methyl Acetate (Table III): 29%
[4]; cocatalyst 16.0 mmole, 4.25 hr, 1.0 mmole catalyst, 4000 psi CO
  % Selectivity to Methyl Acetate (Table III): 74%

## I [HI]
[1]
  % Conversion to Methyl Acetate (Table III): 8%
  % Selectivity to Methyl Acetate (Table III): 47%
  methyl acetate (drawing 17): 6.6 mL

## [I-].[Li+] [LiI]
[1]
  % Conversion to Methyl Acetate (Table III): 0.6%
  % Selectivity to Methyl Acetate (Table III): 100%
  methyl acetate (drawing 17): 1 mL
